# Patent US20100105629A1, “N-Substituted Peptidomimetic Inhibitors of Dipeptidylpeptidase IV” (priority 2007, published 2010)
# Where two headings read alike, the source gives them in different places.
# Target: T1, Dipeptidyl peptidase IV (Homo sapiens, UniProt P27487)
# T1 construct: Dipeptidyl peptidase IV was purified from human placenta; from tissue; host or cells: human placenta
# Assay: DPP IV inhibition assay (chromogenic substrate Ala-Pro-p-nitroanalide)
# Assay type: biochemical
# Details: Xaa-N(Methyl)-boroGly series; for IC50: 10 min incubation with enzyme, assay 25° C.; for Cyclization Index (CI): ratio of the IC50 at pH 8 and the IC50 at pH 2
# Experimental: Dipeptidyl peptidase IV was purified from human placenta. Assays were performed at room temperature (25° C.) in 100 mM HEPES, pH 8.0, 0.14 M NaCl with the chromogenic substrate Ala-Pro-p-nitroanalide (Bachem) using a Molecular Devices SPECTRAmax 340PC^384 microtiter plate reader Inhibitor stocks (1 mg/mL) were prepared in 0.01 N HCl solution for pH 2.0 and in pH 8.0 HEPES buffer for pH 8.0. Both stocks were equilibrated at corresponding pH overnight at room temperature. The 1:10 dilution of inhibitor stocks was done with 0.01 N HCl for pH 2.0 and with pH 8.0 HEPES buffer for pH 8.0 immediately preceding the enzymatic reactions. Enzymatic reactions were carried out by incubating 250 μL of approximately 0.35 nM DPP IV with 30 μL of various inhibitor concentrations (ranging between 10^−3 and 10^−10 M) for 10 minutes before addition of 30 μL of 300 μM substrate. The absorbance at 410 nm was measured 30 minutes after addition of the substrate. Assays and their corresponding measurements were performed in triplicate. The negative control was prepared exactly the same as above, except that 30 μL of 0.01 N HCl was added instead of inhibitor solutions.
# After a 10 minute incubation with the enzyme before addition of the substrate. The IC50 values were determined by fitting the data to a sigmoidal dose-response curve using non-linear regression in Prism 3.0 (Graph Pad).
# [1] = inhibitor stock equilibrated overnight at pH 2.0 (0.01 N HCl), HEPES pH 8.0, read-out: IC50 (pH 2)
# [2] = inhibitor stock equilibrated overnight at pH 8.0 (HEPES buffer), read-out: IC50 (pH 8)
# T1 sequence (P27487 whole entry): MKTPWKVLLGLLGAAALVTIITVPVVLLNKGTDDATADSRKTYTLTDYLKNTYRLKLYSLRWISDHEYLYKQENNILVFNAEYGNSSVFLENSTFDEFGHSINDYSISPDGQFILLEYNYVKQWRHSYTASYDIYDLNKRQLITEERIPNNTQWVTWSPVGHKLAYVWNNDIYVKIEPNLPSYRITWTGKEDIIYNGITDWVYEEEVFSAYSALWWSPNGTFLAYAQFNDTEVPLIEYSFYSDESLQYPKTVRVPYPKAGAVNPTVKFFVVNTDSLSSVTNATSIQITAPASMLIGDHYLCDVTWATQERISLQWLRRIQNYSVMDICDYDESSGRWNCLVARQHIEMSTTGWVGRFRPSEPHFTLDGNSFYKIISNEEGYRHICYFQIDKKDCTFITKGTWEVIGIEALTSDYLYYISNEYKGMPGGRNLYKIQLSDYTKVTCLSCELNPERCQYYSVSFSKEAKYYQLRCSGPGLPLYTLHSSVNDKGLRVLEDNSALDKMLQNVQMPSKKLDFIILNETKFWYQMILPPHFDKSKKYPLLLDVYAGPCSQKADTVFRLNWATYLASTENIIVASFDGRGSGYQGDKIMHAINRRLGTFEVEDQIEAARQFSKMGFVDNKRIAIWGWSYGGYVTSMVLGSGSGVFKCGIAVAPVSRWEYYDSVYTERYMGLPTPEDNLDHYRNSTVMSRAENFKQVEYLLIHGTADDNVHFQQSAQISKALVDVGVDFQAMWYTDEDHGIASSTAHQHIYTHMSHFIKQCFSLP
IC50 [1],IC50 [2],Cyclization Index (CI),Compound
< 0.4 µM,< 25 µM,<100,"CSCC[C@H](N)C(=O)N(C)CB(O)O [Met, H-(S)-Met-boroSar]"
< 0.15 µM,< 0.15 µM,<1,"CN(CB(O)O)C(=O)CNC(C)(C)C [N-t-Butyl-Gly, H-N-(tBu)-Gly-boroSar]"
< 0.7 µM,< 50 µM,<100,"C[C@@H](O)[C@H](N)C(=O)N(C)CB(O)O [Thr, H-(S)-Thr-boroSar]"
< 0.15 µM,< 0.15 µM,<1,CC(C)(C)C(N)C(=O)O (stereo not drawn) [t-Butyl-Gly]
< 75 µM,< 1000 µM,<5,H-(S)-N-(Me)-Ala-boroSar [N-Methyl-Ala]
